Experimental findings from paper PMC12705620 (Frontiers in Pharmacology, 2025) are described below.

Where “and” joins values, the source holds several entries; their conditions need not be identical. Identical values can stand only once. Like-named read-outs stand apart in the source and are kept apart here.

Data set [1] relates to human skin fibroblast cells (BJ). Kind of data set: Cytotoxicity (WST-1 and LDH). It counts as cell-based. As for the experimental part:
(§1) Cells (5 × 10^5 cells/mL) were seeded in 96-well plates (100 μL/well; Thermo Scientific) and allowed to adhere for 24 h. After adhesion, monolayers were exposed to two-fold serial dilutions of the tetrameric and reference peptides (final concentrations: 60–0.05 µM) in fresh DMEM containing 2% (v/v) FBS, and incubated for 24 h at 37 °C in a humidified 5% CO2 atmosphere. Cell viability was assessed using the water-soluble tetrazolium salt (WST-1; Roche) assay, and membrane integrity was measured using the lactate dehydrogenase (LDH) release assay (Abcam), following manufacturer instructions. Absorbance was measured using the Synergy H1 microplate reader (Biotek). Results are expressed as percentages relative to untreated control (for WST-1) and positive lysis control (for LDH) and all experiments were performed in triplicate.

Data set [2] relates to HaCaT human keratinocytes. Kind of data set: Cytotoxicity (WST-1 and LDH). In kind it is cell-based. On the procedure: as §1
Data set [3] concerns Staphylococcus aureus JAR060131. It counts as cell-based. The settings on record: 18 h, 37 °C, median of three independent experiments. As for the experimental part: (§2) Bactericidal activity was assessed as previously described ([Breij et al., 2018]). Briefly, mid-logarithmic phase bacterial cultures were diluted in RPMI to 1 × 10^7 CFU/mL. For fungicidal assays, fungal cultures were prepared in RPMI supplemented with 1% glucose (Merck) and diluted to 2–5 × 10^5 CFU/mL. For each condition, 10 µL of the suspension was added to 90 µL of peptide-containing RPMI or RPMI supplemented with 50% (v/v) pooled human plasma (hereafter referred to as 50% plasma; final bacterial concentration 1 × 10^6 CFU/mL, final fungal concentration 2–5 × 10^4 CFU/mL. Human plasma from four healthy volunteers (Sanquin, Netherlands) was pooled, and stored at −20 °C until use. Peptides were tested similarly for fungicidal activity, after 18 h of incubation at 37 °C with shaking (120 rpm) under humidified conditions, bacterial and fungal survival was determined by plating 10 µL aliquots onto BA plates. Assays were performed in duplicate in round-bottom polypropylene microtiter plates (Costar) and repeated independently three times. Untreated controls included bacteria exposed to RPMI alone or RPMI with 50% plasma. Bactericidal and fungicidal activity was expressed as the lethal concentration 99.9% (LC99.9), defined as the lowest peptide concentration causing ≥99.9% reduction in numbers of CFU compared to the initial inoculum.

The subject of data set [4] is Acinetobacter baumannii RUH875. In kind it is cell-based. The settings on record: 18 h, 37 °C, median of three independent experiments (Table 1). On the procedure: as §2
In data set [5] the test system is S. aureus RN4220 (mCherry) in dTHP-1 macrophages. Kind of data set: Intracellular bacterial killing in macrophages. In kind it is cell-based, Staphylococcus aureus. The settings on record: 24 h pre-treatment at 1 µM and 2 µM, MOI 2, CFU after lysis, versus no treatment. On the procedure: Human monocytes (THP-1; TIB-202; ATCC) were cultured in RPMI 1,640 medium (Gibco) supplemented with 10% FBS. For differentiation into macrophage-like cells (dTHP-1), THP-1 monocytes were seeded in 96-well plates at 3 × 10^4 cells/well (100 µL) in RPMI supplemented with 50 ng/mL phorbol 12-myristate 13-acetate (PMA; Sigma-Aldrich), and incubated for 48 h. The protocol for intracellular killing was adapted from Tang et al. ([Tang et al., 2015]) with modifications. After differentiation, dTHP-1 cells were pre-treated with one or 2 µM peptide solutions in fresh RPMI for 24 h. Subsequently peptides were removed by washing three times with PBS. An mCherry-expressing S. aureus strain, prepared as described in Section 5.2, was used. This strain is efficiently internalized by macrophages ([Cuypers et al., 2024]). Bacteria were added to dTHP-1 cells at a multiplicity of infection (MOI) of 2:1 and incubated for 45 min at 37 °C with 5% CO2 for phagocytosis. Extracellular bacteria were then removed by washing the wells three times with 60 µL PBS, followed by a final wash with 200 µL PBS.dTHP-1 cells were either lysed immediately to quantify the number of intracellular bacteria, after phagocytosis (T = 0 h) or were incubated for 24 h (T = 24 h) in RPMI supplemented with 10 μg/mL gentamicin (Sigma-Aldrich) to inhibit extracellular bacterial growth (in both peptide-treated and control dTHP-1 cells). Internalized bacteria were quantified after lysing the cells with 0.025% Triton X-100 in PBS for 15 min. Lysates were serially diluted (both at 0 h and 24 h) and plated onto BA for CFU enumeration to assess intracellular bacterial survival.

Another data set has as its system human erythrocytes. Put plainly: Hemolytic activity. It counts as cell-based. The settings on record: 45 min. As for the experimental part: Whole blood was collected from healthy volunteers after obtaining informed consent, using Vacuette EDTA tubes (Greiner Bio-One). […] For hemolytic assessment, 180 μL of the prepared erythrocyte suspension was mixed with 20 μL of serially diluted peptide solutions (ranging from 60 to 0.03 μM in PBS).

The subject of data set [6] is TNF-α production by unstimulated dTHP-1 macrophages. Put plainly: TNFα induction by peptides alone in macrophages. It counts as cell-based, human. The settings on record: 2 µM peptide, 4 h, no endotoxin stimulation, versus unstimulated cells. As for the experimental part:
The endotoxin-neutralizing capacity of the peptides was assessed by measuring tumor necrosis factor-alpha (TNF-α) production by dTHP-1 macrophages. dTHP-1 macrophages were stimulated with either lipopolysaccharide (LPS; E. coli O111:B4; 5 ng/mL, Sigma-Aldrich) or UV-inactivated S. aureus JAR060131 (MOI 2; as described in Section 5.2), in the presence or absence of one or 2 µM peptides. Cells were cultured in serum-free RPMI and incubated for 4 h at 37 °C with 5% CO2. Positive controls consisted of cells stimulated with LPS or UV-S. aureus without peptide treatment (no treatment, NT), and unstimulated cells served as negative controls. After stimulation, cell supernatants were collected, and cytokine levels of TNF-α were quantified using human ELISA kits (R&D Systems, USA) according to the manufacturer’s instructions. Each condition was tested in triplicate.

For a further data set, the system named is HaCaT keratinocytes. Put plainly: In vitro scratch wound assay. The settings on record: 1 µM peptide (TGF-β 20 ng/mL), 60 h (legend: 64 h), versus no treatment. In kind it is cell-based, human. As for the experimental part:
Cell migration following injury was assessed using an in vitro scratch assay with the IncuCyte wound maker tool (Sartorius). HaCaT keratinocytes were seeded in 96-well ImageLock plates (Sartorius) at 3 × 10^5 cells/well (100 µL) in DMEM supplemented with 10% FBS and incubated at 37 °C, 5% CO2 for 48 h, with medium change at 24 h, until confluence. Uniform scratches were introduced using the wound maker tool according to the manufacturer’s instructions. After wounding, wells were washed twice with 100 µL PBS to remove cell debris. Cells were then treated with 1 µM peptides in serum-free DMEM, to focus specifically on cell migration from the wound edges. The absence of serum minimizes interference with peptide activity. Transforming growth factor-beta (TGF-β; human; 20 ng/mL; Sigma-Aldrich) and 5% dimethyl sulfoxide (DMSO; Sigma-Aldrich) were used as positive and negative controls, respectively. Additional controls included serum-free DMEM (no-treatment control) and 50% (v/v) acetonitrile in Milli-Q water as solvent control. Wound closure was monitored using the IncuCyte S3 live-cell imaging system (Sartorius) with bright-field microscopy. Images were captured every 6 h for up to 60 h. Image analysis was performed using ImageJ software (version 1.53t, NIH, USA) with the “Wound Healing” plugin, as described by Suarez Arnedo et al. ([Suarez-Arnedo et al., 2020]). Quantitative parameters included wound width (µm), percent wound closure, and migration rate (µm/hour).

Where [7] appears, read: 24 h exposure, DMEM 2% FBS, concentration causing >30% membrane permeation, triplicate.
Setting [8] is: 24 h exposure, WST-1, concentration causing <70% metabolic activity, triplicate.

On to `CC[C@H](C)[C@H](NC(=O)[C@H](CCCCN)NC(=O)[C@H](CCC(=O)O)NC(=O)[C@H](CCCCN)NC(=O)[C@H](CO)NC(=O)[C@H](CCCCN)NC(=O)[C@H](CCCNC(=N)N)NC(=O)[C@H](Cc1ccccc1)NC(=O)[C@H](Cc1ccccc1)NC(=O)[C@H](CC(=O)O)NC(=O)CNC(=O)[C@H](CC(C)C)NC(=O)[C@@H](N)CC(C)C)C(=O)NCC(=O)N[C@@H](CCCCN)C(=O)N[C@@H](CCC(=O)O)C(=O)N[C@@H](Cc1ccccc1)C(=O)N[C@@H](CCCCN)C(=O)N[C@@H](CCCNC(=N)N)C(=O)N[C@H](C(=O)N[C@H](C(=O)N[C@@H](CCC(N)=O)C(=O)N[C@@H](CCCNC(=N)N)C(=O)N[C@H](C(=O)N[C@@H](CCCCN)C(=O)N[C@@H](CC(=O)O)C(=O)N[C@@H](Cc1ccccc1)C(=O)N[C@@H](CC(C)C)C(=O)N[C@@H](CCCNC(=N)N)C(=O)N[C@@H](CC(N)=O)C(=O)N[C@@H](CC(C)C)C(=O)N[C@H](C(=O)N1CCC[C@H]1C(=O)N[C@@H](CCCNC(=N)N)C(=O)N[C@H](C(=O)N[C@@H](CCC(=O)O)C(=O)N[C@@H](CO)C(=O)O)[C@@H](C)O)C(C)C)[C@@H](C)CC)C(C)C)[C@@H](C)CC` [LL-37, reference compound], for which the entries for the “Cytotoxicity, LDH leakage” value in data set [1] (setting [7]) and in data set [2] (setting [7]) were 7.5 µM and 15 µM, respectively. In addition, the “Cytotoxicity, Metabolic activity” value in data set [1] (setting [8]) and in data set [2] (setting [8]) was 15 µM throughout. Besides, the “Cytotoxicity threshold (tolerance), WST-1 and LDH” value in data set [1] (fibroblasts, 24 h) is 7.5 to 15 µM; in data set [2] (keratinocytes, 24 h), 15 µM. Moreover, the LC99.9 in data set [3] (50% pooled human plasma in RPMI) was 60 µM; in data set [3] (RPMI, 1 × 10^6 CFU/mL), 1.88 µM; in data set [4] (50% pooled human plasma), > 120 µM and >120 µM; in data set [4] (RPMI), >120 µM. Moreover, the “Macrophage reduction of intracellular S. aureus burden 24 h post-phagocytosis” value in data set [5] is “significantly enhanced”. In addition, the “Hemolysis at the highest concentration tested” value in the data set with human erythrocytes (60 µM, human erythrocytes) is on record as “non-hemolytic”. The “Hemolytic concentration (HC) < 30%” value with human erythrocytes (1% human erythrocytes in PBS, 37 °C, absorbance 540 nm, 30% lysis threshold, peptides up to 60 µM, triplicate, single donor) is greater than 60 µM. For the same compound, in data set [6], the “TNFα induction by peptide alone” value is given as “minimal but significant”. Moreover, in the data set with HaCaT keratinocytes, the “Percentage of wound closure” value is “significant wound closure”.
